Key:
1246 cells = assay: Differentiation of 1246 cells (G3PDH enzymatic activity); type: cell-based
Protocol: FIG. 11 is a graph showing the dose-related inhibition of adipocyte differentiation by prostaglandin F2α (PGF^2α). 1246 cells were incubated with the indicated dose of pGF^2α
FIG. 12 is a graph showing that indomethacin reverses the EGF-induced inhibition of adipocyte differentiation. 1246 cells were incubated in medium ("no"=control, 100% of activity) or in the presence of indicated concentrations of EGF, indomethacin ("Indo") or a mixture of EGF (E) at the indicated concentration and indomethacin (I) at 3 μM. As above, differentiation was assessed as G3PDH enzymatic activity.
Stimulation of PLA2 will result in the activation of the cyclooxygenase pathway, leading to generation of various prostaglandins, as is well-known in the art. One metabolite of this pathway, prostaglandin F2α (PGF2α), was tested for its ability to act as a mediator of the EGF effect and inhibit adipocyte differentiation.
If EGF inhibits adipocyte differentiation via the activation of PLA2 and cyclooxygenase, it would be expected that an inhibitor of cyclooxygenase would counteract the EGF effect.

[1] = tested on: newborn NBR rats (inguinal fat pads); assay: Daily sc EGF injection of newborn NBR rats for 10 days: eyelid response, body, organ and inguinal fat pad measures; type: in vivo, rat
Protocol: New Zealand Brown (NBR) rats (Trudeau Institute, Saranac Lake, N.Y.) were mated in the animal facilities of the W. Alton Jones Cell Science Center. One day after delivery, litter size was adjusted to 6-8 pups/female according to the size and age of the females. No more than 8 pups/female were used. Mothers were fed ad libitum a regular laboratory diet and were allowed free access to water. Animals were housed in rooms in which the air flow, temperature and lights were controlled (12 h of light between 6 AM to 6 PM).
Mouse "receptor grade" EGF (Biomedical Technologies, Inc.) was used in all experiments. […] Beginning at 24 hrs after birth, rats were injected subcutaneously (sc) daily for 10 days with EGF dissolved in physiological saline at doses varying between 0.1 and 1.0 μg/g of body weight. The pups were weighed prior to each injection. Control animals were similarly handled and weighed, and were injected sc with an equivalent volume of physiological saline.
(§1) Inguinal fat pads, well developed in 10 day-old animals, can be easily dissected. Inguinal fat pads were excised, weighed and pooled. They were digested with collagenase using the method of Bjorntorp et al. (23), and duplicate aliquots were kept for measuring triglyceride content as described below. Digestion conditions minimized breakage of adipocytes during the incubation period (23). After digestion, the cell suspension was filtered through a 253 μm nylon mesh filter. Adipocytes were easily recovered by two successive flotations of the cell suspension. The infranatant containing the adipocyte precursors was removed with a plastic pipet and further filtered through an 80 μm nylon mesh. The adipocytes remained in the tube after removal of the infranatant. They were gently resuspended in culture medium and counted in a hemocytometer. The filtrate containing the adipocyte precursors was centrifuged twice at 200×g for 5 minutes. Adipocyte precursor pellets were resuspended in 4F medium. The cells were subsequently counted in a hemocytometer and inoculated in 35 mm dishes in 4F medium as described previously (24). Such cultures were used to evaluate the cells' ability to differentiate and to measure their responsiveness to EGF.
For determination of triglyceride content, lipids were extracted from duplicate aliquots of the fat pad cell suspensions obtained as above pads, using the method of Bligh et al. (26). Triglycerides were separated by thin-layer chromatography on silica gel plates using hexane/[…]/formic acid (60:40:1) as a solvent system. Spots containing triglycerides were scraped, and the triglyceride content was determined by the method of Marsh et al. (27). This method consists of a quantitative charring of the triglycerides at 200° C. for 15 min in the presence of concentrated sulfuric acid. Absorbance of the samples at 350 nm was measured in a spectrophotometer using known amounts of triolein as standards.
Ten separate in vivo experiments were performed with neonatal NBR rats. Over the 10 day period, pups injected with saline alone or with EGF were weighed daily. The efficiency of EGF injected was assessed by monitoring the "eyelid response," by determining the postnatal day on which eyelid opening occurs, which is related to the EGF dose (28). Eyelid opening occurred at day 8 in rats injected with EGF at a concentration of 1 μg/g body weight, 24 hrs later in rats treated with 0.6 μg EGF/g body weight, and 48 hrs later in rats injected with 0.3 μg EGF/g body weight.

[2] = tested on: adipocyte precursors isolated from inguinal fat pads; assay: Differentiation capacity in 4F medium of adipocyte precursors isolated from EGF-treated rats (G3PDH specific activity); type: cell-based, rat
Protocol: as §1
(§2) The defined medium designated 4F consists of a 1:1 mixture of Dulbecco's modified Eagle's medium (DME) and Ham's F12 medium (DME-F12 medium) containing 15 mM HEPES, pH 7.4, 1.2 mg/ml sodium bicarbonate, 50 μg/ml gentamicin, and the following mixture of proteins: fibronectin (2.5 μg/ml), insulin (10 μg/ml), transferrin (10 μg/ml) and fibroblast growth factor (10 ng/ml). The medium was originally developed to support the differentiation of the adipogenic cell line, 1246 (25). When cultivated in this medium, optimal differentiation of adipocyte precursors was achieved within 8 days of culture (24).
It was shown previously (24) that adipocyte precursors freshly isolated from inguinal fat pads of 48 hr-old rats proliferated and differentiated in 4F medium (see above). […]

[3] = tested on: adipocyte precursors isolated from inguinal fat pads; assay: Inhibition by EGF of differentiation of primary culture adipocyte precursors (G3PDH activity); type: cell-based, rat
Protocol: as §1, §2
Studies from the present inventor's laboratory (10) have shown that the differentiation in vitro of adipocyte precursors cultivated in 4F medium was inhibited in a dose-dependent manner by EGF added to the medium. […]

obese yellow mice = assay: Neonatal EGF treatment of obese yellow mice, body weight development over 43 days; type: in vivo, mouse; settings: 1 μg/g body weight, day 1 to day 10 of life
Protocol: FIG. 7 is a graph showing the effect of EGF treatment on development of body weight in obese yellow mice over 43 days. Mice were injected beginning at 24 hours after birth with EGF (1 μg/g body weight) (filled diamonds, marked 1Y) or with vehicle (PBS) (+, marked OY) for 9 days. Weights are shown beginning at postnatal day 13

[4] = tested on: adipocyte precursors isolated from inguinal fat pads; settings: earlier study; cited from earlier work
adipocyte precursors = assay: Effect of EGF on proliferation of adipocyte precursors in 4F medium (cell count); type: cell-based, rat
Protocol: FIG. 5 is a graph showing the effect of EGF on proliferation of adipocyte precursors. Controls and EGF-treated animals as in FIG. 4. After 8 days of culture, cells were detached with trypsin and counted on a Coulter counter. Values represent means±standard errors.
For this purpose, adipocyte precursors isolated from inguinal fat pads of control or EGF-injected animals (1 μg/g body weight) were cultivated in 4F medium alone or in the presence of increasing concentrations of EGF. […] The ED50 for EGF on cells from EGF-treated animals was calculated to be 0.5 ng/ml, compared to an ED50 of 0.9 ng/ml for EGF acting on control cells.
Marked stimulation of proliferation (in cells from controls or EGF-treated rats) was observed only at EGF concentrations above 1 ng/ml.

newborn rats = assay: Neonatal EGF treatment of rats, body weight development over 28 days; type: in vivo, rat; settings: 0.6 μg/g body weight, from 24 hours after birth, 9 days
Protocol: FIG. 6 is a graph showing the effect of EGF treatment of newborn rats on development of body weight over 28 days. Rats were injected beginning at 24 hours after birth with EGF (0.6 μg/g body weight) (filled squares) or with vehicle (PBS) (+) for 9 days.

phospholipase A2 (PLA2) = settings: EGF 10 ng/ml
Protocol: Experiments were performed to examine whether stimulation of adipocyte precursors, either primary cultures or the 1246 cell line, activated the enzyme phospholipase A2 (PLA2) which results in the activation of cyclooxygenase and the generation of prostaglandins.

EGF receptors = biological target: T1, EGF receptors (Rattus norvegicus, UniProt G3V6K6); assay: 125I-EGF binding to EGF receptors on adipocyte precursors; settings: control and treated rats, with or without acid wash
T1 construct: adipocyte precursors have specific EGF receptors on their surface; endogenous in cells; host or cells: primary adipocyte precursors from inguinal fat pads of neonatal NBR rats
Excerpt: The properties of adipocytes from EGF-treated rats, namely, a decreased ability to differentiate and an increased sensitivity to EGF in vitro, could not be explained by occupancy of EGF receptors at the time of cell isolation.

[5] = tested on: organs including inguinal fat pads; settings: rat, in vivo
Excerpt: One question raised by the above results is whether the inhibition of adipose tissue development by EGF is due to a direct action of EGF on adipose tissue or by indirect action via another growth factor or hormone. Several observations point to direct action of EGF: EGF inhibits the differentiation of primary culture of adipocyte precursors freshly isolated from inguinal fat pads (10); adipocyte precursors have specific EGF receptors on their surface (10).

[6] = EGF-treated compared to control animals

## COc1ccc2c(c1)c(CC(=O)O)c(C)n2C(=O)c1ccc(Cl)cc1 [indomethacin]
1246 cells; indomethacin 3 μM with EGF at 2 or 10 ng/ml
  effect on EGF inhibition of adipocyte differentiation: completely reversed

## Epidermal growth factor [EGF]
[1]; 0.1 μg EGF/g body weight sc daily
  eyelid opening at termination, day 10: eyelid opening had not yet occurred
[1]; 0.3 μg EGF/g body weight sc daily
  eyelid opening, time later than at the 1 μg/g dose: 48 h
[1]; 0.6 μg EGF/g body weight sc daily
  eyelid opening, time later than at the 1 μg/g dose: 24 h
[1]; 1 μg EGF/g body weight
  fat pad triglyceride content, lower than control: 80%
  number of mature adipocytes in the fat pad, lower than in control animals: 4 fold
[1]; 1 μg EGF/g body weight, 10 days
  body weight, less than in control animals: 40%
[1]; 1 μg of EGF/g body weight, 10 days
  inguinal fat pad weight, lower than in controls: 50%
[1]; 1 μg/g body weight
  number of adipocyte precursors per fat pad, higher than in control animals: 1.8 fold
[1]; 1 μg/g body weight sc daily
  postnatal day on which eyelid opening occurs: 8 days
[1]; EGF treatment
  intestinal weight: increased
  kidney weight: some decrease
  liver weight: unchanged
[1]; EGF-treated animals
  total number of cells (precursors plus adipocytes) in fat pads, lower than controls: 40%
[1]; [6]
  hair growth: delay in hair growth
  incisor eruption: acceleration of incisor eruption
[1]; daily sc injection
  lowest EGF dose at which a significant delay of adipose tissue development was observed: 0.3 μg/g body weight
[2]; cells from EGF-treated rats
  G3PDH specific activity corresponding to 100% activity (FIG. 4): 337±53 milliunits/mg protein
[2]; cells from animals treated with 1 μg/g, day 8 of culture
  G3PDH specific activity, lower than control: 60%
[2]; cells from animals treated with EGF 1 μg/g, 5 separate experiments
  G3PDH specific activity: 337±53 mU/mg protein
[3]; EGF 10 ng/ml, primary cultures
  differentiation (G3PDH activity): inhibition of differentiation
[3]; cells from EGF-treated animals (1 μg/g body weight)
  ED50 for inhibition of differentiation (G3PDH enzyme activity): 0.5 ng/mL
[3]; control cells
  ED50 for inhibition of differentiation (G3PDH enzyme activity): 0.9 ng/mL
Obese yellow mice
  body weight over at least 43 days: prolonged and profound diminution in body weight
[4]
  differentiation of primary culture adipocyte precursors from inguinal fat pad of newborn rats: potent inhibitor
Adipocyte precursors
  effect on cell proliferation of the EGF concentration which inhibited differentiation by 50%: moderate or no effects
Adipocyte precursors; EGF added to 4F medium, cells from control and EGF-treated rats, 8 days
  proliferation of adipocyte precursors: stimulated proliferation
Adipocyte precursors; cells from controls or EGF-treated rats
  EGF concentration giving marked stimulation of proliferation: above 1 ng/ml
Newborn rats
  body weight over a 28 day period: significant reduction in body weight
Phospholipase A2 (PLA2)
  PLA2 activity: increase in PLA2 activity

## ^125 I-EGF: radiolabeled EGF used in binding studies
EGF receptors
  EGF bound to EGF receptors on adipocyte precursors: about 4 pg EGF bound per 10^5 cells
[5]
  binding to organs after sc injection: specifically bound to several organs including inguinal fat pads

## prostaglandin F2α [PGF2α]
1246 cells; indicated doses (FIG. 11)
  differentiation of 1246 cells: concentration-dependent inhibition

## transforming growth factor.α [TGFα]
[4]
  differentiation of primary culture adipocyte precursors from inguinal fat pad of newborn rats: potent inhibitor

— patent publication US5723115A, “Inhibition of adipose tissue development and obesity” (W. Alton Jones Cell Science Center, Inc., priority 1993, dated 1998)
